In patent US9850247B2 (Almac Discovery Limited, priority 2013, dated 2017):
pIC50: −log10 of the molar value.

Columns and labels:
Wee-1 kinase = target: T1, Wee-1 kinase (Homo sapiens, UniProt P30291); test: Measurement of Wee-1 kinase activity (ADP-Glo luminescent kit); assay type: biochemical
T1 construct: purchased Invitrogen PV3817
Method in brief: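 ADP-Glo luminescence reads ADP made over 1 h at RT, after an aliquot of 30 μM ATP and 2.0 μg/mL poly(Lys,Tyr 4:1) substrate. Before that, the kinase sat 30 min with inhibitor in Tris-HCl/MgCl2 buffer with BSA and DTT. IC50 came from regression of percent inhibition.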

[1] = CLint estimates using human liver microsomes (Method 4); assay type: in vitro ADME; settings: pH 7.4, 1 μM compound, read-out: Mics - CLint (HLM CLint)
Method in brief: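 Depletion measured by LC/MS/MS in MRM mode over 2–50 min after starting reactions with 1 mM NADPH. Incubations used 0.5 mg/mL human liver microsomal protein, 1 μM compound, 0.1% DMSO, pH 7.4 phosphate buffer, 37 °C. ln peak area plotted against time; the gradient gave t½ and intrinsic clearance.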

T1 sequence (P30291 whole entry): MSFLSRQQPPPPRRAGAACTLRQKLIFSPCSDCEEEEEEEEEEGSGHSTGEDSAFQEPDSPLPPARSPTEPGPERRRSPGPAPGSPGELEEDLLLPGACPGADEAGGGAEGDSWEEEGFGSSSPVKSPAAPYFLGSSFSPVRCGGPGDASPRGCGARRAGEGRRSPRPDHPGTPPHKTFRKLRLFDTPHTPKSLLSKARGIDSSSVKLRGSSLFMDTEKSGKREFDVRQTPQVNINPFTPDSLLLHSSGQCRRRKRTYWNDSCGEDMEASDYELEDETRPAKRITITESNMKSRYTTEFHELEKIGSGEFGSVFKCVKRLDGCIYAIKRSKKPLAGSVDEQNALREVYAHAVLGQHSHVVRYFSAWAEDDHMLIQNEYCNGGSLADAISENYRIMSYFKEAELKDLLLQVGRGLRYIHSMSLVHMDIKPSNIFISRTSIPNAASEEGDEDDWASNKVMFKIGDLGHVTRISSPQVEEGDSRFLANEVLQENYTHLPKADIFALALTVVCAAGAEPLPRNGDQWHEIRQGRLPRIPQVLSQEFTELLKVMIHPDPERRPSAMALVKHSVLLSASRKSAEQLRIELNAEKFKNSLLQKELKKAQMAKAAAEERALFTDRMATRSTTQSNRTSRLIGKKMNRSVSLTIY

SMILES	pIC50 (Wee-1 kinase)	microsomal CLint at 1 μM [1] [µL/min/mg]
CNCc1cc(Nc2ncc3c(n2)N(C)CN(c2c(Cl)cccc2Cl)C3=O)ccc1N1CCCCC1 [Example 136, 3-(2,6-dichlorophenyl)-1-methyl-7-((3-((methylamino)methyl)-4-(piperidin-1-yl)phenyl)amino)-2,3-dihydropyrimido[4,5-d]pyrimidin-4(1H)-one]	7.00 to 8.00	≥ 50
CC(=O)N1CCN(c2ccc(Nc3ncc4c(n3)N(C)CN(c3c(Cl)cccc3Cl)C4=O)cc2CN2CCCC2)CC1 [Example 138, 7-((4-(4-acetylpiperazin-1-yl)-3-(pyrrolidin-1-ylmethyl)phenyl)amino)-3-(2,6-dichlorophenyl)-1-methyl-2,3-dihydropyrimido[4,5-d]pyrimidin-4(1H)-one]	≥ 8.00	≤ 15
C[C@@H]1CN(c2ccc(Nc3ncc4c(n3)N(C)CN(c3c(Cl)cccc3Cl)C4=O)cc2C(F)F)CCN1 [Example 139, (R)-3-(2,6-dichlorophenyl)-7-((3-(difluoromethyl)-4-(3-methylpiperazin-1-yl)phenyl)amino)-1-methyl-2,3-dihydropyrimido[4,5-d]pyrimidin-4(1H)-one]	7.00 to 8.00	15 to 50
C[C@@H]1CN(c2ccc(Nc3ncc4c(n3)N(C)CN(c3c(Cl)cccc3Cl)C4=O)c(F)c2)CCN1 [Example 142, (R)-3-(2,6-dichlorophenyl)-7-((2-fluoro-4-(3-methylpiperazin-1-yl)phenyl)amino)-1-methyl-2,3-dihydropyrimido[4,5-d]pyrimidin-4(1H)-one]	≤ 7.00	15 to 50
CC(=O)NCc1cc(Nc2ncc3c(n2)N(C)CN(c2c(Cl)cccc2Cl)C3=O)ccc1N1CCNCC1 [Example 145, N-(5-((6-(2,6-dichlorophenyl)-8-methyl-5-oxo-5,6,7,8-tetrahydropyrimido[4,5-d]pyrimidin-2-yl)amino)-2-(piperazin-1-yl)benzyl)acetamide]	7.00 to 8.00	≤ 15
CNCc1cc(Nc2ncc3c(n2)N(C)CN(c2c(Cl)cccc2Cl)C3=O)ccc1F [Example 152, 3-(2,6-dichlorophenyl)-7-((4-fluoro-3-((methylamino)methyl)phenyl)amino)-1-methyl-2,3-dihydropyrimido[4,5-d]pyrimidin-4(1H)-one]	≤ 7.00	≤ 15
CNCc1cc(Nc2ncc3c(n2)N(C)CN(c2c(Cl)cccc2Cl)C3=O)ccc1-c1ccncc1 [Example 155, 3-(2,6-dichlorophenyl)-1-methyl-7-((3-((methylamino)methyl)-4-(pyridin-4-yl)phenyl)amino)-2,3-dihydropyrimido[4,5-d]pyrimidin-4(1H)-one]	7.00 to 8.00	≤ 15
CNCc1cc(Nc2ncc3c(n2)N(C)CN(c2c(Cl)cccc2Cl)C3=O)ccc1-c1cccnc1 [Example 156, 3-(2,6-dichlorophenyl)-1-methyl-7-((3-((methylamino)methyl)-4-(pyridin-3-yl)phenyl)amino)-2,3-dihydropyrimido[4,5-d]pyrimidin-4(1H)-one]	7.00 to 8.00	15 to 50
CNCc1cc(Nc2ncc3c(n2)N(C)CN(c2c(Cl)cccc2Cl)C3=O)ccc1Br [Example 157, 7-((4-bromo-3-((methylamino)methyl)phenyl)amino)-3-(2,6-dichlorophenyl)-1-methyl-2,3-dihydropyrimido[4,5-d]pyrimidin-4(1H)-one]	7.00 to 8.00	≤ 15
CNCc1cc(Nc2ncc3c(n2)N(C)CN(c2c(Cl)cccc2Cl)C3=O)ccc1OC [Example 159, 3-(2,6-dichlorophenyl)-7-((4-methoxy-3-((methylamino)methyl)phenyl)amino)-1-methyl-2,3-dihydropyrimido[4,5-d]pyrimidin-4(1H)-one]	7.00 to 8.00	≤ 15
